Entries after “also recorded” stand apart in the source; their conditions may differ.

Experimental findings from US20260000652A1, “IMPEDING PLATINUM-BASED CHEMOTHERAPEUTIC INDUCED OTOTOXICITY USING A COLONY STIMULATING FACTOR 1 RECEPTOR INHIBITOR” (THE UNITED STATES OF AMERICA, AS REPRESENTED BY THE …, priority 2022, published 2026) are described below.

One data set deals with cochlear macrophages. Briefly: Cochlear macrophage ablation, DAPI and CX3CR1-GFP staining of cochlear sections. The settings on record: for ablation of cochlear macrophages: DAPI and CX3CR1-GFP staining of cochlea, saline- and cisplatin-treated mice, vs no pexidartinib. The format is in vivo, mouse. The source says: The CSF1R inhibitor can inhibit, directly and/or indirectly, macrophages, or microglia, or both. Inhibition and/or killing of macrophages and/or microglia can be referred to as “ablation.” The macrophages can comprise cochlear resident macrophages, or recruited macrophages, or both. Fractalkine receptor CX3CR1 is a regulator of macrophage function and can be utilized to label macrophages. The resident macrophages can comprise perivascular resident macrophage-like melanocytes (PVM/Ms). PVM/Ms can regulate the integrity of the blood labyrinth barrier (BLB), a barrier between the vasculature and the inner ear fluids (endolymph or perilymph). The BLB can control exchanges between the blood and fluids from intrastitial space in cochlea. The BLB can maintain the inner ear fluid ionic homeostasis. The BLB can restrict entry of most blood-borne (toxic) substances into inner ear tissues. The BLB can selectively pass ions, fluids, and nutrients into cochlea. The CSF1R inhibitor can affect, directly and/or indirectly, the blood labyrinth barrier (BLB) and one or more of its functions.
(§1) A clinically relevant mouse model of cisplatin-induced ototoxicity was developed and used to examine whether macrophages play a role in hearing loss in response to cisplatin. Pexidartinib is an inhibitor of the colony stimulating factor 1 receptor (CSF1R), which aids in the survival of microglia and cochlear resident macrophages.

Data set [1] is described as follows: Cisplatin-induced weight loss in mouse model of cisplatin ototoxicity. The format is in vivo. The settings on record: cisplatin-treated mice with macrophage ablation.
From the text: as §1

The subject of data set [2] is cisplatin-induced hearing loss. Briefly: Hearing sensitivity by auditory brainstem responses (ABR) in cisplatin-treated mice. The format is in vivo, mouse. As to conditions: cisplatin plus pexidartinib vs cisplatin only, after end of third cycle.
The test system of another data set is outer hair cell function. Briefly: Distortion product otoacoustic emissions (DPOAE) in cisplatin-treated mice. The settings on record: cisplatin plus pexidartinib vs cisplatin only; 16, 22, 32, 40 kHz. The format is in vivo, mouse.
In another data set the test system is outer hair cells. Nature of the data set: Outer hair cell survival, Myosin 7a staining and quantification of cochlear hair cells. The format is in vivo, mouse. As to conditions: cisplatin mice co-treated with PLX3397, Myosin 7a staining, 16, 22.4, 32, 40 kHz regions. How it is done:
Hearing sensitivity was assessed prior to pexidartinib/cisplatin administration and after the end of the third cycle of the treatment protocol using auditory brainstem responses (ABR) and distortion product otoacoustic emissions (DPOAE). […] Histology can be performed using MyosinVIla (turquoise).
The data are supportive of macrophage ablation being protective against cisplatin-induced hearing loss. […] Data and other information relevant to the experimental examples are depicted in the various figures of the drawings and summarized herein.

A short description of data set [3]: Mass spectrometry measurement of platinum content in microdissected inner ear tissues. The settings on record: spiral ganglion neurons, organ of Corti, stria vascularis, utricle, saccule. The format is in vivo, mouse.

On to `FC(F)(F)c1ccc(CNc2ccc(Cc3c[nH]c4ncc(Cl)cc34)cn2)cn1` [pexidartinib], for which the “ablation of cochlear macrophages” value in the data set on cochlear macrophages is listed as “ablate macrophages; also recorded: effectively ablates cochlear macrophages; also recorded: ablation of macrophages”; in the data set on cochlear macrophages (listed as PL3397), “effectively ablates cochlear macrophages”. Besides, the cisplatin-induced weight loss entry in data set [1] is on record as “significantly reduced cisplatin-induced weight loss”. Besides, the “cisplatin-induced hearing loss (ABR threshold shifts)” value in data set [2] is reported as “significantly reduced hearing loss”; in data set [2] (listed as PLX3397), “significantly reducing cisplatin-induced hearing loss”. Also, in the data set with outer hair cell function, the “OHC function (DPOAE amplitudes)” value is reported as “protected from the loss of OHC function; also recorded: higher DPOAE amplitudes”. Besides, the OHC survival entry with outer hair cells is “increased OHC survival; also recorded: protection of outer hair cells against cisplatin-induced hair cell loss”; in the data set on outer hair cells (listed as PLX3397) it was “greater OHC survival”. In addition, the “cisplatin entry into the inner ear (platinum content)” value in data set [3] is reported as “reduces cisplatin entry into the inner ear; also recorded: reduced cisplatin entry to the inner ear”.

In the case of `N.N.[Cl][Pt][Cl]` [cisplatin], the “number of macrophages in the cochlea” value in the data set on cochlear macrophages (cisplatin vs control, whole cochlear section) was “reduced number of macrophages in the cochlea”.
